This note sets out measurements from patent US20210115104A1, “AMYLIN ANALOGUES” (Zealand Pharma A/S, priority 2015, published 2021).

The term EC50 denotes the concentration giving half of the maximal effect.

*1 amine or outer side, *2 acyl side, *3 side chain or, on linkers, in order; H or OH if unused. Where a SMILES comes first, the peptide text is derived from it. Bridges are numbered along the chain shown (N, C = ends). [ ]: non-standard residue; d: D form. The star is where a group is joined. C20 diacid = O=C(O)CCCCCCCCCCCCCCCCCCC(=O)*; γGlu = O=C(O)[C@H](CCC(=O)[*:2])N[*:1]; Hyp = O=C(O)[C@@H]1C[C@@H](O)CN1; NMeI = CC[C@H](C)[C@H](NC)C(=O)O; Aad = N[C@@H](CCCC(=O)O)C(=O)O; Orn = NCCC[C@H](N)C(=O)O; Sar = CNCC(=O)O

The target of assay [1] is T1, human calcitonin receptor (hCTR2) (Homo sapiens, UniProt P30988).
T1 construct: expressed in transfected cells
T1 sequence (P30988 25-474): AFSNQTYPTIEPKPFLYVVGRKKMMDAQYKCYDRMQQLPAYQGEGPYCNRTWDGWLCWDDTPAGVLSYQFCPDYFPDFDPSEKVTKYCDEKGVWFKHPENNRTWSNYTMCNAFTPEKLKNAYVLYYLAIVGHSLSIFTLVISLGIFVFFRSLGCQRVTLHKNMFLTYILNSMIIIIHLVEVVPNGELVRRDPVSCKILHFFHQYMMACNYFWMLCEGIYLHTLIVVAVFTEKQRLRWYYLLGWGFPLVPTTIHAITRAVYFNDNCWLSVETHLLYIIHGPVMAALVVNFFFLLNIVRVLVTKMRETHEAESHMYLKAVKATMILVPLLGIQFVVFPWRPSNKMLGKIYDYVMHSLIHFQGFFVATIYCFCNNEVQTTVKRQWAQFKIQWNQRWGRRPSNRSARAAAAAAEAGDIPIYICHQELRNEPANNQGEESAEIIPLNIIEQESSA
The assay is described as follows: hCTR2 cAMP assay (AlphaScreen) in COS7 cells. It is filed as cell-based. To be noted: cAMP induction, COS7 cells expressing hCTR2; Table 1; read-out: hCTR2 EC50. The essentials:
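Stable hCTR2 clone in RAMP-naïve COS7 cells stimulated 15 min at 37 °C with increasing peptide concentrations in Tyrode buffer pH 7.4 containing IBMX and 0.1% casein. cAMP in lysates measured by AlphaScreen; EC50 from 4-parameter logistic fit.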
Background: Changes in cAMP serve as a functional read-out for many G protein-coupled receptors.

The target of assay [2] is T2, human amylin receptor 3 (hAMYR3), hCTR2 co-expressed with hRAMP3 (Homo sapiens, UniProt O60896+P30988).
T2 construct: expressed in transfected cells
T2 sequence (P30988 25-474): T1 sequence (P30988 25-474)
T2 sequence (O60896 24-148 partner): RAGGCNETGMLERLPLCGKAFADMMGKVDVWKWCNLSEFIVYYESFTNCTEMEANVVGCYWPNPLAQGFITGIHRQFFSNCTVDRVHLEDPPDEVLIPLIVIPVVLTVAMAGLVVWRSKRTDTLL
The assay is described as follows: hAMYR3 cAMP assay (AlphaScreen) in COS7 cells. Format: cell-based. As to conditions: cAMP induction, COS7 cells expressing hAMYR3; Table 1; read-out: hAMYR3 EC50. In outline: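 Stable COS7 clone co-expressing hCTR2 and hRAMP3 was exposed to increasing peptide concentrations in Tyrode buffer (pH 7.4) with 100 µM IBMX and 0.1% casein for 15 min at 37 °C. Lysate cAMP was measured by AlphaScreen; EC50 came from 4-parameter logistic fitting.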

As for `CC[C@H](C)[C@@H](C(=O)N[C@@H](CC(C)C)C(=O)N[C@@H](CO)C(=O)N[C@@H](CO)C(=O)N[C@H](C(=O)N[C@@H](CCC(=O)O)C(=O)N[C@H](C(=O)NCC(=O)N[C@@H](CO)C(=O)N[C@@H](CO)C(=O)N[C@H](C(=O)N1CCC[C@H]1C(N)=O)[C@@H](C)O)C(C)C)[C@@H](C)O)N(C)C(=O)[C@H](C)NC(=O)CN(C)C(=O)[C@H](Cc1ccccc1)NC(=O)[C@H](CO)NC(=O)[C@H](CO)NC(=O)[C@H](CCCNC(=N)N)NC(=O)[C@@H](NC(=O)[C@H](CC(C)C)NC(=O)[C@H](Cc1ccccc1)NC(=O)[C@H](Cc1c[nH]cn1)NC(=O)[C@H](C)NC(=O)[C@H](CC(C)C)NC(=O)[C@H](CCCNC(=N)N)NC(=O)[C@H](CCC(=O)O)NC(=O)[C@@H](NC(=O)[C@H](C)NC(=O)[C@@H]1CSSC[C@H](NC(=O)[C@H](CCCNC(=N)N)NC(=O)CC[C@H](NC(=O)CCCCCCCCCCCCCCCCCCC(=O)O)C(=O)O)C(=O)NCC(=O)N[C@@H]([C@@H](C)O)C(=O)N[C@@H](C)C(=O)N[C@@H]([C@@H](C)O)C(=O)N1)[C@@H](C)O)[C@@H](C)O` [Compound 46, [19CD]-isoGlu-R-C( )-GTAT-C( )-ATERLAHFLTRSSF-Gly(Me)-A-Ile(Me)-LSSTEVGSSTP-NH2] ({C20 diacid-γGlu}-RCGTATCATERLAHFLTRSSF[Sar]A[NMeI]LSSTEVGSSTP-NH2; disulfide 2-7), the 50% effective concentration (EC50) in assay [1] is 0.1 nM; in assay [2] it was 0.14 nM.
For `CC[C@H](C)[C@@H](C(=O)N[C@@H](CC(C)C)C(=O)N[C@@H](CO)C(=O)N[C@@H](CO)C(=O)N[C@H](C(=O)N[C@@H](CCC(=O)O)C(=O)N[C@H](C(=O)NCC(=O)N[C@@H](CO)C(=O)N[C@@H](CCCN)C(=O)N[C@H](C(=O)N1CCC[C@H]1C(N)=O)[C@@H](C)O)C(C)C)[C@@H](C)O)N(C)C(=O)[C@H](C)NC(=O)CN(C)C(=O)[C@H](Cc1ccccc1)NC(=O)[C@H](CO)NC(=O)[C@H](CO)NC(=O)[C@H](CCCNC(=N)N)NC(=O)[C@@H](NC(=O)[C@H](CC(C)C)NC(=O)[C@H](Cc1ccccc1)NC(=O)[C@H](Cc1c[nH]cn1)NC(=O)[C@H](C)NC(=O)[C@H](CC(C)C)NC(=O)[C@H](CCCNC(=N)N)NC(=O)[C@H](CCC(=O)O)NC(=O)[C@@H](NC(=O)[C@H](C)NC(=O)[C@@H]1CSSC[C@H](NC(=O)[C@H](CCCNC(=N)N)NC(=O)CC[C@H](NC(=O)CCCCCCCCCCCCCCCCCCC(=O)O)C(=O)O)C(=O)NCC(=O)N[C@@H]([C@@H](C)O)C(=O)N[C@@H](C)C(=O)N[C@@H]([C@@H](C)O)C(=O)N1)[C@@H](C)O)[C@@H](C)O` [Compound 47, [19CD]-isoGlu-R-C( )-GTAT-C( )-ATERLAHFLTRSSF-Gly(Me)-A-Ile(Me)-LSSTEVGS-Orn-TP-NH2] ({C20 diacid-γGlu}-RCGTATCATERLAHFLTRSSF[Sar]A[NMeI]LSSTEVGS[Orn]TP-NH2; disulfide 2-7), in that order: 0.1 nM and 0.19 nM.
Consider `CC[C@H](C)[C@@H](C(=O)N[C@@H](CC(C)C)C(=O)N[C@@H](CO)C(=O)N[C@@H](CO)C(=O)N[C@H](C(=O)N[C@@H](CCC(=O)O)C(=O)N[C@H](C(=O)NCC(=O)N[C@@H](CO)C(=O)N[C@@H](CC(N)=O)C(=O)N[C@H](C(=O)N1C[C@H](O)C[C@H]1C(N)=O)[C@@H](C)O)C(C)C)[C@@H](C)O)N(C)C(=O)[C@H](C)NC(=O)CN(C)C(=O)[C@H](Cc1ccccc1)NC(=O)[C@H](CO)NC(=O)[C@H](CO)NC(=O)[C@H](CCCNC(=N)N)NC(=O)[C@H](CCCC(=O)O)NC(=O)[C@H](CC(C)C)NC(=O)[C@H](Cc1ccccc1)NC(=O)[C@H](Cc1c[nH]cn1)NC(=O)[C@H](C)NC(=O)[C@H](CC(C)C)NC(=O)[C@H](CCCNC(=N)N)NC(=O)[C@H](CCC(N)=O)NC(=O)[C@@H](NC(=O)[C@H](C)NC(=O)[C@@H]1CSSC[C@H](NC(=O)[C@H](CCCNC(=N)N)NC(=O)CC[C@H](NC(=O)CCCCCCCCCCCCCCCCCCC(=O)O)C(=O)O)C(=O)N[C@@H](CC(N)=O)C(=O)N[C@@H]([C@@H](C)O)C(=O)N[C@@H](C)C(=O)N[C@@H]([C@@H](C)O)C(=O)N1)[C@@H](C)O` [Compound 50, [19CD]-isoGlu-R-C( )-NTAT-C( )-ATQRLAHFL-Aad-RSSF-Gly(Me)-A-Ile(Me)-LSSTEVGSNT-Hyp-NH2] ({C20 diacid-γGlu}-RCNTATCATQRLAHFL[Aad]RSSF[Sar]A[NMeI]LSSTEVGSNT[Hyp]-NH2; disulfide 2-7), for which the EC50 is 0.12 nM in assay [1] and 0.19 nM in assay [2].
For `CC[C@H](C)[C@@H](C(=O)N[C@@H](CC(C)C)C(=O)N[C@@H](CO)C(=O)N[C@@H](CO)C(=O)N[C@H](C(=O)N[C@@H](CCC(=O)O)C(=O)N[C@H](C(=O)NCC(=O)N[C@@H](CO)C(=O)N[C@@H](CC(N)=O)C(=O)N[C@H](C(=O)N1CCC[C@H]1C(N)=O)[C@@H](C)O)C(C)C)[C@@H](C)O)N(C)C(=O)[C@H](C)NC(=O)CN(C)C(=O)[C@H](Cc1ccccc1)NC(=O)[C@H](CO)NC(=O)[C@H](CO)NC(=O)[C@H](CCCNC(=N)N)NC(=O)[C@H](CCC(N)=O)NC(=O)[C@H](CC(C)C)NC(=O)[C@H](Cc1ccccc1)NC(=O)[C@H](Cc1c[nH]cn1)NC(=O)[C@H](C)NC(=O)[C@H](CC(C)C)NC(=O)[C@H](CCCNC(=N)N)NC(=O)[C@H](CCC(=O)O)NC(=O)[C@@H](NC(=O)[C@H](C)NC(=O)[C@@H]1CSSC[C@H](NC(=O)[C@H](CCCNC(=N)N)NC(=O)CC[C@H](NC(=O)CCCCCCCCCCCCCCCCCCC(=O)O)C(=O)O)C(=O)N[C@@H](CC(N)=O)C(=O)N[C@@H]([C@@H](C)O)C(=O)N[C@@H](C)C(=O)N[C@@H]([C@@H](C)O)C(=O)N1)[C@@H](C)O` [Compound 62, [19CD]-isoGlu-R-C( )-NTAT-C( )-ATERLAHFLQRSSF-Gly(Me)-A-Ile(Me)-LSSTEVGSNTP-NH2] ({C20 diacid-γGlu}-RCNTATCATERLAHFLQRSSF[Sar]A[NMeI]LSSTEVGSNTP-NH2; disulfide 2-7), in that order: 0.18 nM and 0.22 nM.
Take `CC[C@H](C)[C@@H](C(=O)N[C@@H](CC(C)C)C(=O)N[C@@H](CO)C(=O)N[C@@H](CO)C(=O)N[C@H](C(=O)N[C@@H](CCC(=O)O)C(=O)N[C@H](C(=O)NCC(=O)N[C@@H](CO)C(=O)N[C@@H](CC(N)=O)C(=O)N[C@H](C(=O)N1C[C@H](O)C[C@H]1C(N)=O)[C@@H](C)O)C(C)C)[C@@H](C)O)N(C)C(=O)[C@H](C)NC(=O)CN(C)C(=O)[C@H](Cc1ccccc1)NC(=O)[C@H](CO)NC(=O)[C@H](CO)NC(=O)[C@H](CCCNC(=N)N)NC(=O)[C@H](CCC(N)=O)NC(=O)[C@H](CC(C)C)NC(=O)[C@H](Cc1ccccc1)NC(=O)[C@H](Cc1c[nH]cn1)NC(=O)[C@H](C)NC(=O)[C@H](CC(C)C)NC(=O)[C@H](CCCNC(=N)N)NC(=O)[C@H](CCC(N)=O)NC(=O)[C@@H](NC(=O)[C@H](C)NC(=O)[C@@H]1CSSC[C@H](NC(=O)[C@H](CCCNC(=N)N)NC(=O)CC[C@H](NC(=O)CCCCCCCCCCCCCCCCCCC(=O)O)C(=O)O)C(=O)N2CCC[C@H]2C(=O)N[C@@H]([C@@H](C)O)C(=O)N[C@@H](C)C(=O)N[C@@H]([C@@H](C)O)C(=O)N1)[C@@H](C)O` [Compound 64, [19CD]-isoGlu-R-C( )-PTAT-C( )-ATQRLAHFLQRSSF-Gly(Me)-A-Ile(Me)-LSSTEVGSNT-Hyp-NH2] ({C20 diacid-γGlu}-RCPTATCATQRLAHFLQRSSF[Sar]A[NMeI]LSSTEVGSNT[Hyp]-NH2; disulfide 2-7): the concentration giving a half-maximal response (EC50) in assay [1] was found to be 0.11 nM; in assay [2] it was 0.15 nM.
For `CC[C@H](C)[C@@H](C(=O)N[C@@H](CC(C)C)C(=O)N[C@@H](CO)C(=O)N[C@@H](CO)C(=O)N[C@H](C(=O)N[C@@H](CCC(=O)O)C(=O)N[C@H](C(=O)NCC(=O)N[C@@H](CO)C(=O)N[C@@H](CC(N)=O)C(=O)N[C@H](C(=O)N1CCC[C@H]1C(N)=O)[C@@H](C)O)C(C)C)[C@@H](C)O)N(C)C(=O)[C@H](C)NC(=O)CN(C)C(=O)[C@H](Cc1ccccc1)NC(=O)[C@H](CO)NC(=O)[C@H](CO)NC(=O)[C@H](CCCNC(=N)N)NC(=O)[C@H](CCC(N)=O)NC(=O)[C@H](CC(C)C)NC(=O)[C@H](Cc1ccccc1)NC(=O)[C@H](CC(=O)O)NC(=O)[C@H](C)NC(=O)[C@H](CC(C)C)NC(=O)[C@H](CCCNC(=N)N)NC(=O)[C@H](CCC(=O)O)NC(=O)[C@@H](NC(=O)[C@H](C)NC(=O)[C@@H]1CSSC[C@H](NC(=O)[C@H](CCCNC(=N)N)NC(=O)CC[C@H](NC(=O)CCCCCCCCCCCCCCCCCCC(=O)O)C(=O)O)C(=O)N[C@@H](CC(N)=O)C(=O)N[C@@H]([C@@H](C)O)C(=O)N[C@@H](C)C(=O)N[C@@H]([C@@H](C)O)C(=O)N1)[C@@H](C)O` [Compound 66, [19CD]-isoGlu-R-C( )-NTAT-C( )-ATERLADFLQRSSF-Gly(Me)-A-Ile(Me)-LSSTEVGSNTP-NH2] ({C20 diacid-γGlu}-RCNTATCATERLADFLQRSSF[Sar]A[NMeI]LSSTEVGSNTP-NH2; disulfide 2-7) the same measures were 0.19 nM and 0.3 nM.
